ChEMBL document CHEMBL1782053, “Differences in CYP3A4 catalyzed bioactivation of 5-aminooxindole and 5-aminobenzsultam scaffolds in proline-rich tyrosine kinase 2 (PYK2) inhibitors: retrospective analysis by CYP3A4 molecular docking, quantum chemical calculations and glutathione adduct detection using linear ion trap/orbitrap …” (Bioorg Med Chem Lett, 2009)

What was measured:
[1] = Dissociation constant, pKa of the compound; format: physicochemical
Liver microsomes [2] = assay: Metabolic stability in human liver microsome assessed as level of GSH adduct at 1 to 10 uM by ion trap/orbitrap MS analysis; format: ADME
Liver microsomes [3] = assay: Metabolic stability in human liver microsome assessed as level of GSH adduct at 20 uM by ion trap/orbitrap MS analysis; format: ADME

pKa [1]	Stability (Liver microsomes [2])	Stability (Liver microsomes [3])	Compound
13.7	–	–	CN(C)[C@@H]1CCC[C@H]1Nc1nc(Nc2ccc3c(c2)CC(=O)N3)ncc1C(F)(F)F
9.26	Stable	Unstable	CN(C)[C@@H]1CCC[C@H]1Nc1nc(Nc2ccc3c(c2)CS(=O)(=O)N3)ncc1C(F)(F)F
